Source: US20090196930A1, “AEROSOLIZED NITRITE AND NITRIC OXIDE -DONATING COMPOUNDS AND USES THEREOF” (Aires Pharmaceuticals, Inc., priority 2007, published 2009)
Where two headings read alike, the source gives them in different places.

Columns and labels:
[1] = cited from earlier work
[2] = test system: phenylepherine-induced contractions of aortic rings; assay: Isolated rat aortic ring relaxation
Excerpt: The isolated rat aortic ring model tests whether a drug solution reduces the phenylepherine-induced pre-contractions of aortic rings. Briefly, rat aorta was excised and cleansed of fat and adhering tissue. Vessels were then cut into individual ring segments (2-3 mm in width) and suspended from a force-displacement transducer in a tissue bath. […] A passive load of 2 grams was applied to all ring segments and maintained at this level throughout the experiments. At the beginning of each experiment, indomethacin-treated ring segments were depolarized with KCl (70 mM) to determine the maximal contractile capacity of the vessel. Rings were then washed extensively and allowed to equilibrate. For subsequent experiments, vessels were submaximally contracted (50% of KCl response) with phenylephrine (PE) (3×10^−8-10^−7 M).
Briefly, a rat aorta was excised and cleansed of fat and adhering tissue. Vessels were then cut into individual ring segments (2-3 mm in width) and suspended from a force-displacement transducer in a tissue bath. […] A passive load of 2 grams was applied to all ring segments and maintained at this level throughout the experiments. At the beginning of each experiment, indomethacin-treated ring segments were depolarized with KCl (70 mM) to determine the maximal contractile capacity of the vessel. Rings were then washed extensively and allowed to equilibrate. […]

[3] = NAL DPI formulation, monodose DPI device, in vitro; cited from earlier work

| Molecule | pKa ([1]; exemplary buffers of Table 2) | other results |
| --- | --- | --- |
| O=S(=O)(O)CCN1CCN(CCS(=O)(=O)O)CC1 [PIPES, Piperazine-N,N′-bis(2-ethanesulfonic acid)] | 6.8 | pKa ([1]; exemplary buffers of Table 1): 6.76 |
| CC(C)(CO)NCC(O)CS(=O)(=O)O (centres unmarked) [AMPSO, N-(1,1-dimethyl-2-hydroxyethyl)-3-amino-2-hydroxypropane-sulfonic acid] | 9.0 | – |
| O=S(=O)(O)CCCN1CCN(CCO)CC1 [EPPS, N-(2-hydroxyethyl)piperazine-N′-(3-propanesulfonic acid)] | 8.0 | – |
| CCCc1nn(C)c2c(=O)[nH]c(-c3cc(S(=O)(=O)N4CCN(C)CC4)ccc3OCC)nc12 [Sildenafil] | – | reduction in phenylepherine-induced aortic constriction ([2]; 50 nM sildenafil): ~50%; EC50 ([2]; relaxation of phenylephrine-contracted rat aortic rings, read-out: ED50 (the source's name)): 50 nM |
| OCC(CO)(CO)NCCCNC(CO)(CO)CO [BIS-TRIS Propane, 1,3-Bis[tris(hydroxymethyl)methylamino]propane] | 6.8 | – |
| L-lysine-N-acetylcysteinate [NAL] | – | fine particle fraction (FPF) of the nominal dose [3]: at least 30% |
| O=C(O)CNC(CO)(CO)CO [Tricine] | 8.1 | – |
| NC(=O)CN(CC(=O)O)CC(=O)O [ADA, N-(2-ametamino)iminodiacetic acid] | 6.6 | pKa ([1]; exemplary buffers of Table 1): 6.60 |
| O=S(=O)(O)CCNC1CCCCC1 [CHES, 2-(cyclohexylamino)ethanesulfonic acid] | 9.3 | – |
| O=S(=O)(O)CCN(CCO)CCO [BES, N,N-Bis(2-hydroxyethyl)-2-aminoethanesulfonic acid] | 7.1 | – |
| O=S(=O)(O)CC(O)CNC(CO)(CO)CO (centres unmarked) [TAPSO, 2-hydroxy-3-[tris(hydroxymethyl)methylamino]-1-propanesulfonic acid] | 7.6 | – |
